Results taken from US20250144132A1, “POLYSACCHARIDE COMPOUND WITH A DEFINED MOLECULAR STRUCTURE THAT CAN ELIMINATE THE TOXIC SIDE EFFECTS OF CHEMOTHERAPY DRUGS” (priority 2023, published 2025).
Like-named read-outs stand apart in the source and are kept apart here.

Key:
[1] = system: 4T1 breast tumor-bearing mice; type: in vivo, BALB/c mice
Description: A suspension of 4T1 breast cancer cells was injected subcutaneously into the left shoulder back of 60 healthy female BALB/c mice to create solid tumor models. When the mean tumor volume reached approximately 190 mm^3, the mice were randomized into groups based on tumor volume, and were administered the respective drugs or drug solvents via oral gavage or intraperitoneal injection over 18 consecutive days. Longest and shortest diameters of tumors were measured every three days to calculate tumor volume, and mouse weights were recorded every three days. At the end of the experiment, tumors, spleens, and thymuses were harvested and weighed to calculate tumor, spleen, and thymus indices.
Based on previous experimental results, Ganoderma lucidum polysaccharide GLP-1 was administered at a low dose of 50 mg/kg and a high dose of 150 mg/kg as shown in Table 27.
(§1) Where TRTV is the relative tumor volume in the experimental group, and CRTV is the relative tumor volume in the model control group. Relative tumor volume (RTV)=Vt/V0, where Vt is the tumor volume on day t of dosing, and V0 is the tumor volume at the time of grouping.
(§2) Where T represents the average tumor weight in the treatment group, and C represents the average tumor weight in the model control group.
(§3) Spleen and thymus organ coefficients: After the last dose, spleen, thymus, and tumor weights are measured, and organ coefficients are calculated.
(§4) Tumor index (%)=(tumor weight/body weight)×100%.
(§5) Immune organ index (mg/g)=(organ mass/body weight)×1000.
(§6) Statistical analyses were performed using SPSS 17.0, with the significance level set at P≤0.05. Measurement data were expressed as mean±standard deviation (˜±s). Normality and homogeneity of variance were tested using Leven's test. If data met normality and homogeneity of variance (P>0.05), one-way ANOVA and LSD test were used for statistical analysis. […] If the Kruskal-Wallis test was statistically significant (P<0.05), comparison analysis was performed using Dunnett's Test (a non-parametric method). Evaluation considered statistical differences and biological significance.

LLC-bearing mice = settings: cisplatin 4 mg/kg, Kanglaite 1404 mg/kg
H22-bearing mice = type: in vivo
Description: A homogenate suspension of H22 hepatoma solid tumors was injected subcutaneously under the axilla of 65 healthy male C57 mice to create a solid tumor model. Once all mouse tumors averaged a volume of about 230 mm3, mice were randomized into groups based on tumor volume and were administered the respective drugs or drug solvents via oral gavage or intraperitoneal injection for 25 consecutive days. Longest and shortest diameters of tumors were measured every three days to calculate tumor volume, and mouse weights were recorded every three days. At the end of the experiment, tumors, spleens, and thymuses were harvested and weighed to calculate tumor, spleen, and thymus indices.
Based on previous experimental results, Ganoderma lucidum polysaccharide GLP-1 was administered at a low dose of 50 mg/kg and a high dose of 150 mg/kg as shown in Table 20.
as §1, §2, §3, §4, §5
as §6, with “(x±s).” for “(˜±s).”

LLC cells = experiment: Cytotoxic effects of Ganoderma lucidum polysaccharide GLP-1 combined with cisplatin on LLC cells (MTT, absorbance at 570 nm); type: cell-based; settings: 48 h, GLP-1 2 mg/mL
Description: LLC lung cancer cells were seeded in a 96-well cell culture plate at 3,000 cells per well and incubated at 37° C. in a 5% CO2 incubator for 24 h. […] The cultures were then incubated for another 48 h before measuring the absorbance at 570 nm.

[2] = blood, flow cytometry, GLP-1 low-dose 130 mg/kg
[3] = cisplatin 3 mg/kg, GLP-1 low-dose 50 mg/kg

N.N.[Cl][Pt][Cl] [Cisplatin, cisplatin] showed a Number of deaths ([1]; 4T1 breast tumor-bearing mice, 8 animals, cisplatin 4 mg/kg i.p.) of 1, a Survival time ([1]; 4T1 breast tumor-bearing mice, 18-day dosing, cisplatin 4 mg/kg i.p.) of 17.1 ± 2.3 days and a Tumor volume ([1]; 4T1 breast tumor-bearing mice, D0, cisplatin 4 mg/kg i.p.) of 190.5 ± 34.8 mm^3. The “Tumor growth inhibition rate vs. the model control group” value ([1]; 4T1 breast tumor-bearing mice, end of experiment, cisplatin 4 mg/kg i.p.) was 71.6%, the “Tumor growth inhibition rate compared to the model control group” value ([1]; by tumor weight, cisplatin 4 mg/kg, GLP-1 low-dose 50 mg/kg) was 71.6% and the Tumor volume (LLC-bearing mice; D1, GLP-1 low-dose 130 mg/kg) was 94.99 mm^3. It also gave a Tumor volume (LLC-bearing mice; D4, GLP-1 low-dose 130 mg/kg) of 150.58 mm^3, a Tumor volume (LLC-bearing mice; D7, GLP-1 low-dose 130 mg/kg) of 8.91 mm^3 and a Tumor volume (LLC-bearing mice; D10, GLP-1 low-dose 130 mg/kg) of 6.51 mm^3. It also gave a Tumor volume (LLC-bearing mice; D13, GLP-1 low-dose 130 mg/kg) of 27.36 mm^3, a Tumor volume (LLC-bearing mice; D16, GLP-1 low-dose 130 mg/kg) of 36.09 mm^3 and a Tumor volume (LLC-bearing mice; D19, GLP-1 low-dose 130 mg/kg) of 71.00 mm^3. The Tumor volume (LLC-bearing mice; D22, GLP-1 low-dose 130 mg/kg) was 824.01 mm^3, the Tumor volume (LLC-bearing mice; D25, GLP-1 low-dose 130 mg/kg) was 976.79 mm^3 and the Tumor histopathology (LLC-bearing mice; H&E, x200) was “large areas of necrosis and hemorrhage were visible at the tumor center, with abundant tumor cells”. For the same compound, the Tumor coefficient (LLC-bearing mice; after last dose, GLP-1 low-dose 130 mg/kg) was 7.528 ± 2.567 %, the “CD3^+/CD4^+” value (LLC-bearing mice; [2]) was 0.093 ± 0.025 and the “CD3^+/CD8^+” value (LLC-bearing mice; [2]) was 1.571 ± 0.406. For the same compound, the “Tumor growth inhibition rate” value (LLC-bearing mice; by tumor weight vs model control, GLP-1 low-dose 130 mg/kg) was 61.6%, the “Blood WBC level compared to the model control group” value (LLC-bearing mice; GLP-1 low-dose 130 mg/kg) was “significantly decreased” and the “Body weight compared to the model control group” value (LLC-bearing mice; GLP-1 low-dose 130 mg/kg) was “significantly decreased after administration from D7 to D25”. The Mortality rate (LLC-bearing mice; GLP-1 low-dose 130 mg/kg) was 0%, the Number of deaths (LLC-bearing mice; GLP-1 low-dose 130 mg/kg) was 0 and the “Number of surviving animals” value (LLC-bearing mice; GLP-1 low-dose 130 mg/kg) was 8. The Survival time (H22-bearing mice; 25 days of dosing, cisplatin 3 mg/kg, GLP-1 low-dose 50 mg/kg) was 25 ± 0 days, the “Tumor growth inhibition rate vs. the model control group” value (H22-bearing mice; H22-bearing mice, end of experiment, cisplatin alone) was 84.2% and the “Tumor growth inhibition rate compared to the model control group” value (H22-bearing mice; by tumor weight, cisplatin 3 mg/kg, GLP-1 low-dose 50 mg/kg) was 84.2%. The Mortality rate (H22-bearing mice; [3]) was 0%, the Number of deaths (H22-bearing mice; [3]) was 0 and the Inhibition rate (LLC cells) was 35.2%.
